According to publication PMC9101087, “A Sensitive LC-MS/MS Method for the Simultaneous Determination of Two Thia-Analogous Indirubin N-Glycosides and Indirubin-3′-Monoxime in Plasma and Cell Culture Medium” (Molecules, 2022):

Key:
[1] = Storage stability in human plasma, LC-MS/MS after plasma extraction; assay type: in vitro ADME; conditions: for Stability 4 °C / Stability AS (autosampler) / Stability −20 °C / Stability BT (benchtop): 24 h; for Stability FT (freeze-thaw): freeze-thaw cycles; for Stability −80 °C 90 d: long-term freezing; for Stability BT (benchtop): room temperature
Protocol: (§1) To assess stability, low and high concentrations of all analytes were subjected to different storage conditions. […] For determination of long-term stability, samples were stored in either plasma or DMEM at –80 °C for 90 and 91 days, respectively. To measure short-term stability, samples were stored at room temperature, in an autosampler, at 4 °C, and at –20 °C for 24 h. In addition, freeze-thaw cycles were performed according to FDA guidance for the standard solutions. For comparison, at least three freshly prepared samples were prepared for each concentration level. With the exception of autosampler stability, the internal standard was always added to all samples before sample processing was started.
(§2) Liquid-liquid extraction was performed identically for plasma and DMEM samples. After addition of the 1.0 µM internal standard, 50 µL of 0.8 M alkaline carbonate buffer was added. The extraction was performed once with 890 µL ethyl acetate. Tubes were then shaken for 10 min at 1400 rpm using a Thermomixer 5436 (Eppendorf AG, Hamburg, Germany) followed by centrifugation for 5 min at 14,000 rpm using a Centrifuge 5415 C (Eppendorf AG, Hamburg, Germany). Subsequently, 850 µL of the supernatant was transferred to a new tube and evaporated to dryness for 35 min at 35 °C (8 min heating time) using a SpeedVac SPD130DLX (Thermo Fisher Scientific, Asheville, NC, USA). Reconstitution was performed with 200 µL of a acetonitrile/water/H2SO4 [3/0.5/0.5] mixture, shaken at 1400 rpm for 5 min, and centrifuged again at 14,000 rpm for 5 min. Finally, 155 µL of the sample was transferred to an LC vial and analyzed.
(§3) To assess stability, low and high concentrations of all analytes were exposed to different storage conditions. To determine long-term stability, samples were stored in either plasma or DMEM at −80 °C for 90 and 91 days, respectively. To determine short-term stability, samples were stored for 24 h on the bench at room temperature, in the autosampler, at 4 °C, and at −20 °C. In addition, freeze-thaw cycles were performed for the standard solutions according to FDA guidance. At least three freshly prepared samples per concentration level were prepared for comparison. With the exception of the stability test in the autosampler, the internal standard was always added to all samples before sample processing was started. However, to avoid concentration fluctuations due to possible degradation of the analytes, stock solutions were prepared twice a week and stored at −20 °C. Each storage condition was examined in the dark. For all conditions studied, n = 3–6 replicates were prepared.

[2] = Storage stability in human plasma, LC-MS/MS after plasma precipitation; assay type: in vitro ADME; conditions: long-term freezing
[3] = Storage stability in DMEM, LC-MS/MS after DMEM extraction; assay type: physicochemical; conditions: for Stability 4 °C / Stability AS (autosampler) / Stability −20 °C / Stability BT (benchtop): 24 h; for Stability FT (freeze-thaw): freeze-thaw cycles; for Stability −80 °C 91 d: long-term freezing; for Stability BT (benchtop): room temperature
Protocol: as §1
Regarding the medium, validation procedures were performed with high-glucose DMEM supplemented with 100 U/mL penicillin and 100 μg/mL streptomycin, but not with FBS. With the exception of selectivity, where both media (GlutaMAX™-I or UltraGlutamine^TM I supplement) were tested, only Gibco™ DMEM with GlutaMAX™-I was used for all other analytical procedures.
as §2, §3

| SMILES | Stability 4 °C ([1]; 3.0 nM) | Stability AS (autosampler) ([1]; 3.0 nM) | Stability −20 °C ([1]; 3.0 nM) | Stability FT (freeze-thaw) ([1]; 3.0 nM) | Stability −80 °C 90 d ([1]; 3.0 nM) | Stability BT (benchtop) ([1]; 3.0 nM) | Stability 4 °C ([1]; 250 nM) | Stability AS (autosampler) ([1]; 250 nM) | Stability −20 °C ([1]; 250 nM) | Stability FT (freeze-thaw) ([1]; 250 nM) | Stability −80 °C 90 d ([1]; 250 nM) | Stability BT (benchtop) ([1]; 250 nM) | Stability −80 °C 91 d ([2]; 2.0 nM) | Stability −80 °C 91 d ([2]; 167 nM) | Stability 4 °C ([3]; 3.0 nM) | Stability AS (autosampler) ([3]; 3.0 nM) | Stability −20 °C ([3]; 3.0 nM) | Stability FT (freeze-thaw) ([3]; 3.0 nM) | Stability −80 °C 91 d ([3]; 3.0 nM) | Stability BT (benchtop) ([3]; 3.0 nM) | also measured |
| --- | --- | --- | --- | --- | --- | --- | --- | --- | --- | --- | --- | --- | --- | --- | --- | --- | --- | --- | --- | --- | --- |
| O=C1/C(=C2/C(=O)N([C@@H]3O[C@H](CO)[C@@H](O)[C@H](O)[C@H]3O)c3ccccc32)Sc2ccccc21 [KD87, 3-[3′-oxo-benzo[b]thiophen-2′-(Z)-ylidene]-1-(β-D-glucopyranosyl)-oxindole] | 79.3 ± 2.4% | 80.8 ± 3.0% | 101.4 ± 3.4% | 98.3 ± 5.4% | 100.1 ± 8.4% | 64.4 ± 4.6% | 94.1 ± 5.6% | 73.7 ± 3.3% | 100.1 ± 0.7% | 99.7 ± 2.6% | 100.9 ± 3.6% | 77.8 ± 2.7% | 96.7 ± 8.6% | 106.0 ± 1.4% | 81.4 ± 3.3% | 101.2 ± 7.4% | 87.7 ± 3.2% | 98.3 ± 5.4% | 97.8 ± 6.0% | 104.9 ± 4.0% | Stability 4 °C ([3]; 40 nM): 84.5 ± 2.1%; Stability AS (autosampler) ([3]; 40 nM): 81.7 ± 3.7%; Stability −20 °C ([3]; 40 nM): 84.2 ± 2.6%; Stability FT (freeze-thaw) ([3]; 40 nM): 101.9 ± 5.4%; Stability −80 °C 91 d ([3]; 40 nM): 92.3 ± 7.8%; Stability BT (benchtop) ([3]; 40 nM): 98.3 ± 1.1% |
| O=C1/C(=C2/C(=O)N([C@@H]3O[C@H](CO)[C@@H](O)[C@H](O)[C@@H]3O)c3ccccc32)Sc2ccccc21 [KD85, 3-[3′-oxo-benzo[b]thiophene-2′-(Z)-ylidene]-1-(β-D-mannopyranosyl)-oxindole] | 85.5 ± 2.2% | 71.8 ± 2.7% | 86.4 ± 3.5% | 99.4 ± 4.0% | 102.5 ± 5.2% | 64.4 ± 3.6% | 94.3 ± 5.7% | 73.1 ± 2.7% | 101.8 ± 3.2% | 99.1 ± 2.0% | 101.7 ± 1.1% | 76.0 ± 2.6% | 105.1 ± 12.4% | 108.2 ± 3.7% | 98.3 ± 2.2% | 75.6 ± 5.8% | 86.8 ± 1.8% | 99.4 ± 4.0% | 93.2 ± 6.9% | 115.3 ± 1.8% | Stability 4 °C ([3]; 40 nM): 80.5 ± 1.8%; Stability AS (autosampler) ([3]; 40 nM): 71.6 ± 1.9%; Stability −20 °C ([3]; 40 nM): 81.9 ± 3.9%; Stability FT (freeze-thaw) ([3]; 40 nM): 99.9 ± 3.3%; Stability −80 °C 91 d ([3]; 40 nM): 92.7 ± 5.7%; Stability BT (benchtop) ([3]; 40 nM): 100.5 ± 1.9% |
